In paper PMC6172411, “Development of a Quantitative Assay for the Characterization of Human Collectin-11 (CL-11, CL-K1)” (Frontiers in Immunology, 2018):

Legend:
[1] = target: T1, rCL-11 (recombinant collectin-11, CL-11, CL-K1) (Homo sapiens, UniProt Q9BWP8); test: co-precipitation with D-mannose-agarose (western blot) and solid-phase binding to coated D-mannose-BSA; conditions: Ca2+ required (no binding in EDTA or Mg-EGTA); D-mannose presented as immobilised agarose or BSA conjugate; room temperature
T1 construct: gene COLEC11; no tag stated; homomeric disulfide-linked oligomers of trimers, monomer ~34 kDa reduced

[2] = target: T1, rCL-11 (recombinant collectin-11, CL-11, CL-K1); test: solid-phase competition ELISA, inhibition of rCL-11 binding to coated mannan; conditions: Ca2+ (TBS-Tw-Ca, 2.5 mM CaCl2), rCL-11 1 ug/ml, mannan-coated plate, room temperature

T1 sequence (Q9BWP8 26-271): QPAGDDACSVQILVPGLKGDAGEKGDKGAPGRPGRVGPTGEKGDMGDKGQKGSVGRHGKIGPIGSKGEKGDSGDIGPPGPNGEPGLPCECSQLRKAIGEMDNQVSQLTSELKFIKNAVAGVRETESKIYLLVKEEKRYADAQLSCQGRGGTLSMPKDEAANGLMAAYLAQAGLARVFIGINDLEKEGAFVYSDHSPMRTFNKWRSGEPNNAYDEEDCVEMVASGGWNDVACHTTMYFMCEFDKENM

`OC[C@H]1OC(O)[C@@H](O)[C@@H](O)[C@@H]1O` (stereo partly drawn) [D-mannose] was tested, and the “co-precipitation with D-mannose-agarose (western blot) and solid-phase binding t” value [1] was “bound to D-mannose and mannan in the presence of calcium”.

Molecule `C[C@@H]1OC(O)[C@@H](O)[C@H](O)[C@@H]1O` (stereo partly drawn) [L-fucose] has an IC50 [2] of 36.5 mM.
